Results as given in PubChem BioAssay AID248 (DTP/NCI, 2004).
“And” between values parts separate entries of the source, which are not always exact repeats. Equal values may be shown once. Toxic doses and inconclusive results are not listed. Cut-off read from the data, not from the text of the source: active = T/C of 150% or more; inactive = T/C below 125%.

Tested on: L1210 leukemia ip in BDF1 mice, survival T/C
Experiment: NCI In Vivo Anticancer Drug Screen. Data for tumor model L1210 Leukemia (intraperitoneal) in B6D2F1 (BDF1) mice
Settings: endpoint: mean survival time, higher = longer survival
Outline: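 In this screen, tumor-bearing mice given compound are compared to those given vehicle, and their survival values are reported as a treated-to-control quotient.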

[1] = dose: 50.0 mg/kg/injection, schedule: Q01DX001 (ip), vehicle: carboxymethylcellulose (CMC)
[2] = dose: 100.0 mg/kg/injection, schedule: Q01DX001 (ip), vehicle: carboxymethylcellulose (CMC)
[3] = dose: 200.0 mg/kg/injection, schedule: Q01DX001 (ip), vehicle: carboxymethylcellulose (CMC)
[4] = dose: 400.0 mg/kg/injection, schedule: Q01DX001 (ip), vehicle: carboxymethylcellulose (CMC)
[5] = dose: 100.0 mg/kg/injection, schedule: Q04DX003 (ip), vehicle: saline
[6] = dose: 200.0 mg/kg/injection, schedule: Q04DX003 (ip), vehicle: saline
[7] = dose: 100.0 mg/kg/injection, schedule: Q01DX009 (ip), vehicle: saline
[8] = dose: 200.0 mg/kg/injection, schedule: Q01DX009 (ip), vehicle: saline
[9] = dose: 400.0 mg/kg/injection, schedule: Q04DX003 (ip), vehicle: saline
[10] = dose: 100.0 mg/kg/injection, schedule: Q01DX001 (ip), vehicle: saline
[11] = dose: 100.0 mg/kg/injection, schedule: Q01DX009 (ip), vehicle: Klucel (hydroxypropylcellulose) (HPC)
[12] = dose: 100.0 mg/kg/injection, schedule: Q04DX003 (ip), vehicle: Klucel (hydroxypropylcellulose) (HPC)
[13] = dose: 200.0 mg/kg/injection, schedule: Q01DX009 (ip), vehicle: Klucel (hydroxypropylcellulose) (HPC)
[14] = dose: 200.0 mg/kg/injection, schedule: Q04DX003 (ip), vehicle: Klucel (hydroxypropylcellulose) (HPC)
[15] = dose: 400.0 mg/kg/injection, schedule: Q04DX003 (ip), vehicle: Klucel (hydroxypropylcellulose) (HPC)
[16] = dose: 100.0 mg/kg/injection, schedule: Q01DX001 (ip), vehicle: saline with Tween-80
[17] = dose: 200.0 mg/kg/injection, schedule: Q01DX001 (ip), vehicle: saline with Tween-80
[18] = dose: 400.0 mg/kg/injection, schedule: Q01DX001 (ip), vehicle: saline with Tween-80
[19] = dose: 100.0 mg/kg/injection, schedule: Q04DX003 (ip), vehicle: saline with Tween-80

Measured: T/C

CCOC(=O)c1cc(=O)c2c(ccc3cc(OC)ccc32)[nH]1
inactive: dose: 6.25 mg/kg/injection, schedule: Q04DX002 (ip), vehicle: carboxymethylcellulose (CMC) 101 % of control and 89 % of control | dose: 12.5 mg/kg/injection, schedule: Q01DX001 (ip), vehicle: carboxymethylcellulose (CMC) 105 % of control | dose: 12.5 mg/kg/injection, schedule: Q01DX009 (ip), vehicle: carboxymethylcellulose (CMC) 94 % of control and 105 % of control | dose: 12.5 mg/kg/injection, schedule: Q04DX003 (ip), vehicle: carboxymethylcellulose (CMC) 100 % of control | dose: 25.0 mg/kg/injection, schedule: Q01DX001 (ip), vehicle: carboxymethylcellulose (CMC) 105 % of control | dose: 25.0 mg/kg/injection, schedule: Q01DX009 (ip), vehicle: carboxymethylcellulose (CMC) 97 % of control and 98 % of control | dose: 25.0 mg/kg/injection, schedule: Q04DX003 (ip), vehicle: carboxymethylcellulose (CMC) 93 % of control | [1] 94 % of control | dose: 50.0 mg/kg/injection, schedule: Q01DX009 (ip), vehicle: carboxymethylcellulose (CMC) 94 % of control and 88 % of control | dose: 50.0 mg/kg/injection, schedule: Q04DX003 (ip), vehicle: carboxymethylcellulose (CMC) 100 % of control

COC(C)(C)C(Br)C(=O)OCC(=O)c1ccc(Br)cc1 (centres undefined)
inactive: [1] 104 % of control | [2] 108 % of control | [3] 102 % of control | [4] 102 % of control

Cn1cnc2c([N+](C)(C)C)ncnc21
inactive: dose: 11.0 mg/kg/injection, schedule: Q04DX003 (ip), vehicle: saline 100 % of control | dose: 22.0 mg/kg/injection, schedule: Q04DX003 (ip), vehicle: saline 104 % of control | dose: 44.0 mg/kg/injection, schedule: Q04DX003 (ip), vehicle: saline 98 % of control | dose: 90.0 mg/kg/injection, schedule: Q04DX003 (ip), vehicle: saline 100 % of control | [5] 95 % of control and 101 % of control | [6] 104 % of control

N#Cc1c(CBr)ccc2ccccc12
inactive: dose: 75.0 mg/kg/injection, schedule: Q01DX001 (ip), vehicle: saline 92 % of control

Cc1cc2nc(CN)[nH]c2cc1C
inactive: dose: 50.0 mg/kg/injection, schedule: Q01DX009 (ip), vehicle: saline 98 % of control | [7] 98 % of control | [8] 93 % of control

CC(Br)C1(c2cccc([N+](=O)[O-])c2)OCCO1 (centres undefined)
inactive: [5] 105 % of control | [6] 100 % of control | [9] 108 % of control

O=C(COC(=O)c1c(Cl)c(Cl)c(Cl)c(Cl)c1C(=O)O)c1ccc(-c2ccccc2)cc1
inactive: [10] 94 % of control | dose: 200.0 mg/kg/injection, schedule: Q01DX001 (ip), vehicle: saline 102 % of control | dose: 400.0 mg/kg/injection, schedule: Q01DX001 (ip), vehicle: saline 91 % of control

CCCOc1ccc(C=Nc2ccc(C)cc2)cc1
inactive: [11] 98 % of control | [12] 109 % of control | [13] 116 % of control | [14] 101 % of control | [15] 117 % of control

CN(C)N=Nc1cc(Cl)cc(C(N)=O)c1Cl
inactive: [16] 106 % of control | dose: 100.0 mg/kg/injection, schedule: Q01DX009 (ip), vehicle: saline with Tween-80 103 % of control | [17] 101 % of control | dose: 200.0 mg/kg/injection, schedule: Q01DX009 (ip), vehicle: saline with Tween-80 121 % of control | [18] 119 % of control

Nc1ccc(N)c2c1C(=O)c1cccc([N+](=O)[O-])c1C2=O
inactive: [1] 101 % of control | [2] 97 % of control | [3] 95 % of control | [4] 95 % of control

CC(=O)CC(=O)NC1CCCCCC1
inactive: [11] 92 % of control | [12] 100 % of control | [13] 103 % of control | [14] 100 % of control | dose: 400.0 mg/kg/injection, schedule: Q01DX009 (ip), vehicle: Klucel (hydroxypropylcellulose) (HPC) 97 % of control | [15] 96 % of control

S=C=Nc1ccc(Cl)cc1
inactive: dose: 25.0 mg/kg/injection, schedule: Q04DX003 (ip), vehicle: saline with Tween-80 107 % of control | dose: 50.0 mg/kg/injection, schedule: Q04DX003 (ip), vehicle: saline with Tween-80 96 % of control | [19] 95 % of control and 101 % of control

Nc1c2c(=O)[nH]c(=O)c2c(N)c2c(=O)c3ccccc3c(=O)c12
inactive: dose: 100.0 mg/kg/injection, schedule: Q01DX001 (ip), vehicle: acetone 93 % of control | dose: 200.0 mg/kg/injection, schedule: Q01DX001 (ip), vehicle: acetone 103 % of control | dose: 400.0 mg/kg/injection, schedule: Q01DX001 (ip), vehicle: acetone 103 % of control

O=C(CCN1CCC(c2ccccc2)CC1)c1ccc(F)cc1
inactive: [2] 106 % of control | [3] 93 % of control

O=N[O-].O=N[O-].[Co].[NH-]CC[N-]CCO.[NH-]CC[N-]CCO
inactive: dose: 25.0 mg/kg/injection, schedule: Q01DX009 (ip), vehicle: water 109 % of control and 122 % of control | dose: 25.0 mg/kg/injection, schedule: Q04DX003 (ip), vehicle: water 99 % of control | dose: 50.0 mg/kg/injection, schedule: Q01DX009 (ip), vehicle: water 103 % of control and 109 % of control | dose: 50.0 mg/kg/injection, schedule: Q04DX003 (ip), vehicle: water 100 % of control | dose: 100.0 mg/kg/injection, schedule: Q01DX009 (ip), vehicle: water 120 % of control and 89 % of control | dose: 100.0 mg/kg/injection, schedule: Q04DX003 (ip), vehicle: water 97 % of control and 100 % of control

Nc1ncnc2c1ncn2C1OC(C(=O)NO)C(O)C1O (centres undefined)
inactive: dose: 0.78 mg/kg/injection, schedule: Q01DX009 (ip), vehicle: saline 106 % of control | dose: 1.56 mg/kg/injection, schedule: Q01DX005 (ip), vehicle: saline 104 % of control | dose: 1.56 mg/kg/injection, schedule: Q01DX009 (ip), vehicle: saline 123 % of control | dose: 3.12 mg/kg/injection, schedule: Q01DX005 (ip), vehicle: saline 121 % of control

CCOC(=O)C(N)C(C)(C)S (centres undefined)
inactive: [7] 94 % of control | [5] 96 % of control | [8] 103 % of control | [6] 102 % of control | dose: 400.0 mg/kg/injection, schedule: Q01DX009 (ip), vehicle: saline 100 % of control | [9] 103 % of control

CCCCCCCCCC(=O)N1CCCN(C(=O)CCCCCCCCC)C1
inactive: dose: 30.0 mg/kg/injection, schedule: Q01DX001 (ip), vehicle: saline 102 % of control | [10] 98 % of control | dose: 300.0 mg/kg/injection, schedule: Q01DX001 (ip), vehicle: saline 93 % of control

CSc1ccc(NC(=O)Oc2ccc3c(C)cc(=O)oc3c2)cc1
inactive: dose: 25.0 mg/kg/injection, schedule: Q01DX009 (ip), vehicle: saline with Tween-80 93 % of control and 100 % of control | dose: 50.0 mg/kg/injection, schedule: Q01DX009 (ip), vehicle: saline with Tween-80 95 % of control and 89 % of control | [16] 94 % of control | dose: 100.0 mg/kg/injection, schedule: Q04DX002 (ip), vehicle: saline with Tween-80 98 % of control and 91 % of control | [19] 87 % of control | [17] 94 % of control | dose: 200.0 mg/kg/injection, schedule: Q04DX002 (ip), vehicle: saline with Tween-80 94 % of control and 91 % of control | dose: 200.0 mg/kg/injection, schedule: Q04DX003 (ip), vehicle: saline with Tween-80 86 % of control | [18] 96 % of control | dose: 400.0 mg/kg/injection, schedule: Q04DX002 (ip), vehicle: saline with Tween-80 96 % of control and 98 % of control | dose: 400.0 mg/kg/injection, schedule: Q04DX003 (ip), vehicle: saline with Tween-80 95 % of control

NC(N)=Nc1ccc(Sc2ccc(N=C(N)N)cc2)cc1
inactive: dose: 75.0 mg/kg/injection, schedule: Q01DX001 (ip), vehicle: carboxymethylcellulose (CMC) 101 % of control | dose: 150.0 mg/kg/injection, schedule: Q01DX001 (ip), vehicle: carboxymethylcellulose (CMC) 98 % of control | dose: 300.0 mg/kg/injection, schedule: Q01DX001 (ip), vehicle: carboxymethylcellulose (CMC) 98 % of control

COC1OC(COC(=O)c2ccc([N+](=O)[O-])cc2)C(N(C)C(C)=O)C1OC(=O)c1ccc([N+](=O)[O-])cc1 (centres undefined)
inactive: [2] 93 % of control | [3] 93 % of control | [4] 93 % of control
